In patent US10597388B2, “Pyridazinone herbicides” (FMC CORPORATION, priority 2014, dated 2020):

Experiments:
Type in all cases: in vivo
[1] = system: waterhemp (common waterhemp, Amaranthus rudis); test: Test C greenhouse herbicide test, pre- and postemergence
In short: (§1)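 Greenhouse pots; pre-em on seeded loam:sand blend, post-em on 2–18 cm plants (1–4 leaf) in sphagnum peat/vermiculite medium. Formulation: non-phytotoxic solvent + surfactant. Read-out: visual % control (0–100) vs controls at 13–15 d.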

[2] = system: ragweed (common ragweed, Ambrosia elatior); test: as above
In short: as §1

corn (Zea mays) = test: as above
In short: as §1

soybean (Glycine max) = test: as above
In short: as §1

[3] = system: velvetleaf (Abutilon theophrasti); test: as above
In short: as §1

[4] = system: foxtail, giant (giant foxtail, Setaria faberii); test: as above; details: Postemergence
In short: as §1

[5] = system: lambsquarters (Chenopodium album); test: as above
In short: as §1

[6] = system: crabgrass, large (large crabgrass, Digitaria sanguinalis); test: as above
In short: as §1

[7] = system: ryegrass, Italian (Italian ryegrass, Lolium multiflorum); test: as above
In short: as §1

[8] = system: johnsongrass (Sorghum halepense); test: as above
In short: as §1

[9] = system: pigweed (Amaranthus retroflexus); test: as above
In short: as §1

[10] = system: morningglory (Ipomoea coccinea); test: as above
In short: as §1

[11] = system: blackgrass (Alopecurus myosuroides); test: as above
In short: as §1

[12] = system: oilseed rape (Brassica napus); test: as above
In short: as §1

[13] = system: oat, wild (wild oat, Avena fatua); test: Test C greenhouse herbicide test, postemergence; details: Postemergence
In short: (§2)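 Visual injury scores (0–100, where 100 means complete control) were assigned 13 to 15 d after postemergence application, by comparison with untreated plants. Treated seedlings stood 2 to 18 cm tall, at the 1- to 4-leaf stage.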

kochia (Kochia scoparia) = test: Test C greenhouse herbicide test, postemergence; details: Postemergence
In short: as §2

[14] = Postemergence, 31 g ai/ha, scale 0 to 100 (0 no effect, 100 complete control)
[15] = Postemergence, 125 g ai/ha, scale 0 to 100, 0 is no effect, 100 is complete control
[16] = Postemergence, 250 g ai/ha, scale 0 to 100, 0 no effect, 100 complete control, 13 to 15 d
[17] = Preemergence, 31 g ai/ha, scale 0 to 100, 0 is no effect, 100 is complete control
[18] = Preemergence, 62 g ai/ha, scale 0 to 100, 0 is no effect, 100 is complete control
[19] = Preemergence, 125 g ai/ha, scale 0 to 100, 0 is no effect, 100 is complete control
[20] = Preemergence, 250 g ai/ha, scale 0 to 100 (0 no effect, 100 complete control)
[21] = postemergence, 62 g ai/ha, scale 0 to 100, 0 no effect, 100 complete control
[22] = 31 g ai/ha, scale 0 to 100 (0 no effect, 100 complete control)
[23] = 125 g ai/ha, scale 0 to 100, 0 is no effect, 100 is complete control
[24] = 250 g ai/ha, scale 0 to 100, 0 no effect, 100 complete control, 13 to 15 d

CCC(=O)Oc1c(Cl)nn(C)c(=O)c1-c1c(C)sc2ccc(Cl)cc12 [Compound 111]
Plant response rating, Waterhemp [1, 14]: 40
Plant response rating, Waterhemp [1, 15]: 55
Plant response rating, Waterhemp [1, 16]: 70
Plant response rating, Waterhemp [1, 17]: 50
Plant response rating, Waterhemp [1, 18]: 65
Plant response rating, Waterhemp [1, 19]: 75
Waterhemp plant response rating [1, 20]: 85
Plant response rating, Ragweed [2, 14]: 98
Plant response rating, Ragweed [2, 15]: 98
Plant response rating, Ragweed [2, 16]: 100
Plant response rating, Ragweed [2, 17]: 60
Plant response rating, Ragweed [2, 18]: 75
Plant response rating, Ragweed [2, 19]: 90
Ragweed plant response rating [2, 20]: 98
Plant response rating, Corn (corn (Zea mays); [14]): 5
Plant response rating, Corn (corn (Zea mays); [15]): 15
Plant response rating, Corn (corn (Zea mays); [16]): 10
Plant response rating, Corn (corn (Zea mays); [17]): 0
Plant response rating, Corn (corn (Zea mays); [18]): 0
Plant response rating, Corn (corn (Zea mays); [19]): 0
Corn plant response rating (corn (Zea mays); [20]): 15
Corn plant response rating (corn (Zea mays); [21]): 10
Plant response rating, Soybean (soybean (Glycine max); [14]): 0
Plant response rating, Soybean (soybean (Glycine max); [15]): 5
Plant response rating, Soybean (soybean (Glycine max); [16]): 10
Plant response rating, Soybean (soybean (Glycine max); [19]): 0
Soybean plant response rating (soybean (Glycine max); [20]): 0
Plant response rating, Velvetleaf [3, 14]: 40
Plant response rating, Velvetleaf [3, 15]: 98
Plant response rating, Velvetleaf [3, 16]: 90
Plant response rating, Velvetleaf [3, 17]: 65
Plant response rating, Velvetleaf [3, 18]: 70
Plant response rating, Velvetleaf [3, 19]: 95
Velvetleaf plant response rating [3, 20]: 100
Plant response rating, Foxtail, Giant [4, 22]: 15
Plant response rating, Foxtail, Giant [4, 23]: 70
Plant response rating, Foxtail, Giant [4, 24]: 85
Plant response rating, Lambsquarters [5, 14]: 90
Plant response rating, Lambsquarters [5, 15]: 100
Plant response rating, Lambsquarters [5, 16]: 100
Plant response rating, Lambsquarters [5, 17]: 90
Plant response rating, Lambsquarters [5, 18]: 95
Plant response rating, Lambsquarters [5, 19]: 90
Lambsquarters plant response rating [5, 20]: 95
Plant response rating, Crabgrass, Large [6, 14]: 10
Plant response rating, Crabgrass, Large [6, 15]: 25
Plant response rating, Crabgrass, Large [6, 16]: 25
Plant response rating, Crabgrass, Large [6, 17]: 5
Plant response rating, Crabgrass, Large [6, 18]: 5
Plant response rating, Crabgrass, Large [6, 19]: 85
Crabgrass, Large plant response rating [6, 20]: 80
Crabgrass, Large plant response rating [6, 21]: 20
Plant response rating, Ryegrass, Italian [7, 14]: 85
Plant response rating, Ryegrass, Italian [7, 15]: 95
Plant response rating, Ryegrass, Italian [7, 16]: 95
Plant response rating, Ryegrass, Italian [7, 17]: 10
Plant response rating, Ryegrass, Italian [7, 18]: 90
Plant response rating, Ryegrass, Italian [7, 19]: 85
Ryegrass, Italian plant response rating [7, 20]: 95
Plant response rating, Johnsongrass [8, 14]: 10
Plant response rating, Johnsongrass [8, 15]: 15
Plant response rating, Johnsongrass [8, 16]: 10
Plant response rating, Johnsongrass [8, 17]: 0
Plant response rating, Johnsongrass [8, 18]: 0
Plant response rating, Johnsongrass [8, 19]: 0
Johnsongrass plant response rating [8, 20]: 20
Plant response rating, Pigweed [9, 14]: 85
Plant response rating, Pigweed [9, 15]: 90
Plant response rating, Pigweed [9, 16]: 98
Plant response rating, Pigweed [9, 17]: 98
Plant response rating, Pigweed [9, 18]: 90
Plant response rating, Pigweed [9, 19]: 98
Pigweed plant response rating [9, 20]: 100
Plant response rating, Morningglory [10, 14]: 100
Plant response rating, Morningglory [10, 15]: 100
Plant response rating, Morningglory [10, 16]: 100
Plant response rating, Morningglory [10, 17]: 50
Plant response rating, Morningglory [10, 18]: 70
Plant response rating, Morningglory [10, 19]: 95
Morningglory plant response rating [10, 20]: 98
Plant response rating, Blackgrass [11, 14]: 0
Plant response rating, Blackgrass [11, 15]: 20
Plant response rating, Blackgrass [11, 16]: 35
Plant response rating, Blackgrass [11, 17]: 0
Plant response rating, Blackgrass [11, 18]: 5
Plant response rating, Blackgrass [11, 19]: 5
Blackgrass plant response rating [11, 20]: 20
Blackgrass plant response rating [11, 21]: 5
Plant response rating, Oilseed Rape [12, 14]: 80
Plant response rating, Oilseed Rape [12, 15]: 95
Plant response rating, Oilseed Rape [12, 16]: 100
Plant response rating, Oilseed Rape [12, 17]: 0
Plant response rating, Oilseed Rape [12, 18]: 98
Plant response rating, Oilseed Rape [12, 19]: 100
Oilseed Rape plant response rating [12, 20]: 100
Plant response rating, Oat, Wild [13, 22]: 55
Plant response rating, Oat, Wild [13, 23]: 90
Plant response rating, Oat, Wild [13, 24]: 98
Plant response rating, Kochia (kochia (Kochia scoparia); [22]): 80
Plant response rating, Kochia (kochia (Kochia scoparia); [23]): 90
Plant response rating, Kochia (kochia (Kochia scoparia); [24]): 95
